This note sets out measurements from patent US4132738A, “Preparation of 15-deoxy-16-hydroxyprostaglandins” (Miles Laboratories, Inc., priority 1978, dated 1979).

In assay [1] the test system is blood pressure in the hypertensive rat. The assay is described as follows: Effects on systolic blood pressure in the hypertensive rat. It counts as in vivo. More on the design: key: 0: Not significant at any time interval; 1: Significant at one time interval; 2: Significant at two time intervals. As to conditions: 1 mg/kg intraperitoneal; 2, 4, 6 and 9 hours. As to the method: The acute anithypertensive activity of test compounds was determined in rats made hypertensive by the procedure of Grollman (Proc. Soc. Exper Biol. Med., 57: 102 [1944]). Female rats weighing between 60 and 100 g were anesthetized with ether, the right kidney approached through a flank retroperitoneal incision, decapsulated and tied with a figure-of-eight-ligature. The animals were left to recover and two weeks later were again anesthetized and the contralateral kidney removed. Four weeks after the second operation the rats were subjected to indirect blood pressure measurements and those showing systolic pressure values greater than 160 mmHg were selected for drug testing.
Blood pressure was measured in the tail with an inflatable occluding cuff placed at the base of the extremity and a pulse detector located distally. The cuff was inflated to approximately 300 mmHg and was slowly deflated until pulsations appeared, indicating the level of systolic pressure; diastolic pressure was not recorded by this procedure. All measurements were carried out in unanesthetized, unsedated animals maintained in a warm environment during the recording procedure and for at least 6 hours before. In all cases, three pressure readings were obtained in succession and mean values were calculated thereof.
Experiments were carried out in groups of five hypertensive rats in which systolic pressure was determined immediately before and 2, 4, 6 and 9 hours after intraperiotoneal administration of the test compound at a dose of 1 mg/kg. Drugs were diluted from stock solutions with phosphate buffer (Lee et. al., Prostaglandins, 29 [1973]), so as to inject this quantity in a volume of 1 ml/kg. Changes from control blood pressure values were calculated for each interval both in mmHg and in percent, and evaluated for significance by means of Wilcoxon's signed rank test (Wilcoxon, R. and Wilcox, R. A., "Some Rapid Approximate Statistical Procedures," Lederle Laboratories, Pearl River [1964]).

The test system of assay [2] is gastric secretion in the rat. The assay is described as follows: Effects on gastric secretion in the rat. The class given is in vivo. The settings on record: for GAS value, carbinol versus methyl ester analogue: comparison in words. As to the method: A procedure based on that described by Lipman, W. (J. Pharm. Pharmacol., 21: 335 [1968]) was used to assess the influence of test compounds on gastric secretion. Rats of one sex weighing 150 to 200 g were randomly divided into groups of six animals each and fasted for 48 hours previous to the experiments, water being available ad libitum. The animals were anesthetized with ether, the abdomen opened through a midline incision, and the pylorus ligated. Test compounds were diluted from stock solution so as to administer a dose of 1.5 mg/kg in a volume equivalent to 1 ml/kg. Subcutaneous injections were applied immediately after surgery and again 2 hours later, so that a total dose of 3.0 mg/kg was administered. Dilutions were made with phosphate buffer (pH 7.38) as recommended by Lee et al. (Prostaglandins, 3: 29 [1973]) in order to insure adequate stability of drugs at the subcutaneous depot. Each compound was tested in one group of rats; an additional control group received only the vehicle.
Four hours after pyllric ligation the animals were killed with ether, the cardias ligated, and the stomachs removed. The volume of gastric secretion was measured and the contents centrifuged at 5000 rpm for 10 minutes. Total acid in the supernatant was titrated against a 0.1 N sodium hydroxide solution and the amount expressed in mEq.
Volume and total acid values of the treated group were compared with those of the controls […]. Antisecretory activity was scored according to the following scale: […]

The subject of the next assay is guinea pig trachea. The assay is described as follows: Effects on the guinea pig trachea in vitro. It counts as cell-based. As to conditions: comparison in words. As to the method:
A male guinea pig weighing 200-500 g was killed by a blow on the head. A 20 mm length of the trachea was dissected from the animal, transferred to a petri dish containing Krebs' solution (aerated with 95% O2 and 5% CO2 at 37° C.), and cut longitudinally opposite the tracheal muscle. The tissue was then cut transversely three quarters of the distance across, a second cut in the opposite direction (again three quarters of the distance across the tissue) was made and the procedure was continued for the whole tissue. The ends of the trachea were pulled to form a zig-zig shaped strip. The tracheal strip used in the experiment was approximately 30 mm when extended under 0.25-0.5 g load in the tissue bath. Cotton thread was tied to one end of the tissue, and linen thread to the other. It was attached via the linen thread to a glass hook in a 5 ml isolated tissue bath containing Krebs' solution (37° C., aerated with a mixture of 95% O2 and 5% CO2). The opposite end was attached via cotton to an isotonic Harvard transducer (Model 386 Heart/Smooth Muscle Transducer, Harvard Apparatus). The load on the transducer lever was small, usually 0.3 g, with a range of 0.25-0.5 g, and the magnification high, 80 fold using an appropriate twin-channel pen recorder. A minimum of thirty minutes was allowed before applying a test compound to the tissue. Test compounds were then applied (in volumes of 0.5 ml) at thirty minute intervals, being in contact with the tissue for five minutes followed by an overflow washout time of twenty seconds.
Prostaglandin E1, at a bath concentration of 0.1 mcg/ml, was then tested repeatedly on two such strips, obtained from two different animals, until two responses (the values of which are recorded) differing by no more than 25% occur. A test compound was then added to the same two strips at bath concentrations of 0.01, 0.1, 1.0, and 10.0 mcg/ml and the effects of the compound were recorded. After the test compound had been evaluated at the highest concentration, PGE1 was retested at 0.1 mcg/ml (and the value of the response recorded) to insure that the viability of the strips was retained during the experiment. The mean of the effects of the test compound on the two strips was then calculated for each concentration, and, biased on the resulting values, an activity value was assigned as follows: […]

On to `CCCCC(C)(O)C/C=C/[C@H]1[C@H](O)CC(=O)[C@@H]1CCCCCCCO` (stereo partly drawn) [TR 4698, 16-methyl-1,11α,16RS-trihydroxyprost-13E-en-9-one], for which the “Blood Pressure Hypertensive Rat: activity value” (from here on “Blood Pressure Hypertensive Rat”) in assay [1] amounted to 1. Moreover, the “GAS value, carbinol versus methyl ester analogue” value in assay [2] was “the same”. The “Guinea pig trachea value, carbinol versus methyl ester analogue” value in the assay on guinea pig trachea was “the same”.

Consider `CC1CCCC(O)(C/C=C/[C@H]2[C@H](O)CC(=O)[C@@H]2CCCCCCCO)C1` (stereo partly drawn) [TR 4851, 16, 20-Methano-18RS-methyl-1, 11α, 16RS-trihydroxyprost-13E-en-9-one], for which the “Blood Pressure Hypertensive Rat” value in assay [1] is 0.

Take `CCCC(C)(C)C(O)C/C=C/[C@H]1[C@H](O)CC(=O)[C@@H]1CCCCCCCO` (single isomer, unassigned) [TR 4752, 1, 11α, 16R or S-trihydroxy-17-dimethylprost-13E-en-9-one]: the “Blood Pressure Hypertensive Rat” value in assay [1] worked out at 0. The GAS activity entry in assay [2] (result in words) was “no GAS activity”.

With `COC(=O)CCCCCC[C@H]1C(=O)C[C@@H](O)[C@@H]1/C=C/CC1(O)CC2C=CCC21` (stereo partly drawn) [TR 4800, Methyl 11α, 16RS-dihydroxy-16, 18-methano-17, 20-methano-9-oxoprosta-13E, 19-dien-1-oate], the “Blood Pressure Hypertensive Rat” value in assay [1] is 0.

On to `COC(=O)CCCCCC[C@H]1C(=O)C[C@@H](O)[C@@H]1/C=C/CC1(O)CC2CCC1C2` (stereo partly drawn) [TR 4883, Methyl 11α,16RS-dihydroxy-16,20-methano-17,20-methano-9-oxoprost-13E-en-1-oate], for which the “Blood Pressure Hypertensive Rat” value in assay [1] was 1.

With `CCCCC(O)C/C=C/[C@H]1[C@H](O)CC(=O)[C@@H]1CCCCCCCO` (stereo partly drawn) [TR 4706, 1,11α,16RS-trihydroxyprost-13E-en-9-one], the “Blood Pressure Hypertensive Rat” value in assay [1] is on record as 0. For the same compound, the “GAS value, carbinol versus methyl ester analogue” value in assay [2] is listed as “the same”. Also, the “Guinea pig trachea value, carbinol versus methyl ester analogue” value in the assay with guinea pig trachea is on record as “the same”.

On to `CCCC(C)C(O)C/C=C/[C@H]1[C@H](O)CC(=O)[C@@H]1CCCCCCC(=O)OC` (stereo partly drawn) [TR 4814, Methyl 11α, 16RS-dihydroxy-17-methyl-9-oxoprost-13E-oate, reference compound], for which the “Blood Pressure Hypertensive Rat” value in assay [1] was determined as 1.

For `COC(=O)CCCCCC[C@H]1C(=O)C[C@@H](O)[C@@H]1/C=C/CC1(O)CCCCC1` [TR 4717, Methyl 11α, 16RS-dihydroxy-16, 20-methano-9-oxoprost-13E-en-1-oate], in assay [1], the “Blood Pressure Hypertensive Rat” value is reported as 0.

Consider `O=C1C[C@@H](O)[C@H](/C=C/CC2(O)CC3CCCC32)[C@H]1CCCCCCCO` (stereo partly drawn) [TR 4799, 16, 18-Methano-17, 20-methano-1, 11α, 16RS-trihydroxyprost-13E-en-9-one], for which the “Blood Pressure Hypertensive Rat” value in assay [1] is on record as 0.

Regarding `COC(=O)CCCCCC[C@H]1C(=O)C[C@@H](O)[C@@H]1/C=C/CC1(O)CC2CCCCC21` (stereo partly drawn) [TR 4808, Methyl 11α, 16RS-dihydroxy-17, 20-ethano-16, 18-methano-9-oxoprost-13E-en-1-oate], the “Blood Pressure Hypertensive Rat” value in assay [1] stood at 0.

Regarding `COC(=O)CCCCCC[C@H]1C(=O)C[C@@H](O)[C@@H]1/C=C/[C@H]1CCCC[C@@H]1O` [TR 4767, Methyl 15R, 20-cyclo-11α, 16-trans-dihydro-9-oxoprost-13E-en-1-oate], the “Blood Pressure Hypertensive Rat” value in assay [1] is 0.

As for `O=C1C[C@@H](O)[C@H](/C=C/CC2(O)CCCCC2)[C@H]1CCCCCCCO` [TR 4703, 16, 20-Methano-1, 11α, 16-trihydroxyprost-13E-en-9-one], in assay [1], the “Blood Pressure Hypertensive Rat” value amounted to 0.

`CCCC(C)C(O)C/C=C/[C@H]1[C@H](O)CC(=O)[C@@H]1CCCCCCCO` (stereo partly drawn) [TR 4749, 1, 11α, 16RS-trihydroxy-17RS-methylprost-13E-en-9-one]: the “Blood Pressure Hypertensive Rat” value in assay [1] came to 0. Also, in assay [2], the “GAS value, carbinol versus methyl ester analogue” value is listed as “lower”. Further, in the assay on guinea pig trachea, the “Guinea pig trachea value, carbinol versus methyl ester analogue” value is “lower”.
